Reference: paper PMC2580052 (Proteins, 2008)

Biological target: T1, geranylgeranyl diphosphate synthase (GGPPS) (Saccharomyces cerevisiae, UniProt Q12051)
T1 sequence (Q12051 1-335): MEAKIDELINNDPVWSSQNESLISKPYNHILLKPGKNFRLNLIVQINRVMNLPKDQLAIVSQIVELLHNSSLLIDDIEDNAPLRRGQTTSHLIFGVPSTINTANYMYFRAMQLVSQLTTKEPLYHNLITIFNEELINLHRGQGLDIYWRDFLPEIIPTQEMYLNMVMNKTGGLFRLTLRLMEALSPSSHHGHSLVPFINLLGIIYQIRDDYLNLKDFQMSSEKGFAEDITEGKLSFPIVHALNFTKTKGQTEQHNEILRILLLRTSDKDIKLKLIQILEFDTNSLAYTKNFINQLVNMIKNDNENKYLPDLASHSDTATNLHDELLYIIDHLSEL
Assay: X-ray crystal structure
Assay type: binding

Structure (SMILES): CN(CCCCc1ccccc1)CCC(O)(P(=O)(O)O)P(=O)(O)O [compound 5, N-[methyl(4-phenylbutyl)]-3-aminopropyl-1-hydroxy-1,1-bisphosphonate]
- X-ray crystal structure (2.08 Å, soaked crystals): We thus crystallized and determined the x-ray crystallographic structure of BPH-210 bound to GGPPS.
